Assay results reported in patent US11285188B2, “Composition for preventing or treating metabolic diseases containing artemisiae capillaris herba and citrus unshiu peel complex extracts as active ingredients” (Medicare Pharmaceuticals Inc., priority 2018, dated 2022).

Tested on: high-fat diet mouse model
Experiment: Therapeutic effect on hyperlipidemia and hypercholesterolemia in high-fat diet mouse model (blood cholesterol and triglycerides)
Type: in vivo
Conditions: high-fat diet female ICR mice, oral once a day for 12 weeks; complex extracts 100 mg/kg/day, Lovastatin 20 mg/kg/day
Procedure: 64 six-week-old female ICR mice were purchased from SLC Co. and acclimated for one week under breeding conditions of a temperature range of 22±1° C., a humidity range of 41±1%, and a 12-hour light/12-hour dark cycle. During this period, the mice were fed a normal diet. Then, the mice were randomly divided into 16 and 48 individuals. To adapt the mice to feed, the 16 individuals (a normal diet-fed group) were fed a normal diet (CA.170481, Teklad Co.) and the 48 individuals (a high-fat diet-fed group) were fed a high-fat diet (D12451, Research Diets Co.) containing 45 kcal % fat under the same breeding conditions as above for one week.
Specifically, eight mice were selected from the normal diet-fed group and assigned to a normal diet group. 24 mice were selected from the high-fat diet-fed group, eight of which were assigned to a high-fat diet group, a high-fat diet+complex extracts administration group, and a high-fat diet+Lovastatin administration group, respectively. Each experimental group was orally administered distilled water or the Artemisiae capillaris Herba and Citrus unshiu Peel complex extracts of Examples 1-3 containing the highest content of scoparone once a day for 12 weeks. In addition, a comparison group was orally administered Lovastatin (Hanmi Pharm. Co., Ltd), which is used to treat hyperlipidemia and hypercholesterolemia, once a day for 12 weeks. In this case, the complex extracts and Lovastatin were each suspended in distilled water and administered orally. In addition, the normal group was fed a normal diet and other experimental groups were fed a high-fat diet for 12 weeks.
In the experimental groups of Experimental Example <2-1>, changes in the contents of triglycerides and cholesterol were confirmed.
Specifically, each experimental group of Experimental Example <2-1> was orally administered samples for 12 weeks. On the last day of the experiment, all animals were bled under ether inhalation anesthesia, and 1 mL of the collected blood was centrifuged for 10 minutes at 3,000 rpm to isolate plasma. The contents of total cholesterol, triglycerides, and low density lipoprotein cholesterol (LDL) in the isolated plasma were measured using an Analyst III kit (Hemagen Diagnositics Co.) according to a manufacturer's procedure, and the content of high density lipoprotein cholesterol (HDL) was measured using an AU400 kit (Olympus Co.) according to a manufacturer's procedure.

## CC[C@H](C)C(=O)O[C@H]1C[C@@H](C)C=C2C=C[C@H](C)[C@H](CC[C@@H]3C[C@@H](O)CC(=O)O3)[C@H]21 [Lovastatin]
  Serum content HDL: 62.44 ± 1.96 mg/dL
  Serum content LDL: 14.91 ± 0.46 mg/dL
  Serum content Total cholesterol: 83.26 ± 7.40 mg/dL
  Serum content Triglycerides: 81.43 ± 5.24 mg/dL
